From ChEMBL document CHEMBL4699589, “4-Hydroxy Pyridones from Heterologous Expression and Cultivation of the Native Host” (2020)

Tests used:
Assay type in all cases: functional
Escherichia coli = assay: Antibacterial activity against Escherichia coli assessed as reduction in microbial growth after 1 day by two-fold dilution method; settings: 24 h
Staphylococcus aureus = assay: Antibacterial activity against Staphylococcus aureus 209P assessed as reduction in microbial growth after 1 day by two-fold dilution method; settings: 24 h
Candida albicans = assay: Antifungal activity against Candida albicans ATCC96901 assessed as reduction in microbial growth after 2 to 3 days by two-fold dilution method; settings: time day 2-3
Cryptococcus neoformans = assay: Antifungal activity against Cryptococcus neoformans assessed as reduction in microbial growth after 2 to 3 days by two-fold dilution method; settings: time day 2-3

Row | SMILES | MIC (Escherichia coli) | MIC (Staphylococcus aureus) | MIC (Candida albicans) | MIC (Cryptococcus neoformans)
1 | C/C=C/C[C@H](C)C[C@@]1(C)Oc2c(-c3ccc(O)cc3)c[nH]c(=O)c2[C@H]1O | > 100 µM | > 100 µM | > 100 µM | –
2 | C[C@H]1C[C@@H]2[C@H](c3c(c(-c4ccc(O)cc4)c[nH]c3=O)O[C@@H]2C)[C@@H](C)C1 | > 100 µM | > 100 µM | > 100 µM | 6.25 µM
3 | C[C@H]1[C@H](O)[C@@H](C)C[C@@H]2[C@@H]1c1c(c(-c3ccc(O)cc3)c[nH]c1=O)O[C@H]2C | > 100 µM | > 100 µM | > 100 µM | > 100 µM
4 | C/C=C/C[C@H](C)C[C@]1(C)Oc2c(-c3ccc(O)cc3)c[nH]c(=O)c2[C@@H]1O | > 100 µM | > 100 µM | > 100 µM | –
5 | C/C=C/C[C@H](C)C[C@]1(C)Oc2c(-c3ccc(O)cc3)c[nH]c(=O)c2[C@H]1O | > 100 µM | > 100 µM | > 100 µM | –

Other lines, results leading:

Row | MIC (Escherichia coli) | MIC (Staphylococcus aureus) | MIC (Candida albicans) | MIC (Cryptococcus neoformans) | SMILES
6 | > 100 µM | > 100 µM | > 100 µM | 25 µM | C/C=C/C[C@H](C)C[C@H](C)C(=O)C1=C(O)[C@H]([C@@H](O)c2ccc(O)cc2)NC1=O
7 | > 100 µM | > 100 µM | > 100 µM | > 100 µM | C/C=C/C[C@H](C)C[C@H](C)C(=O)c1c(O)cc[nH]c1=O
8 | > 100 µM | > 100 µM | > 100 µM | > 100 µM | C/C=C/C[C@H](C)C[C@H](C)C(=O)C1=C(O)/C(=C/c2ccc(O)cc2)NC1=O
9 | > 100 µM | > 100 µM | > 100 µM | 6.25 µM | C/C=C/C[C@H](C)C[C@H](C)C(=O)c1c(O)c(-c2ccc(O)cc2)c[nH]c1=O
10 | > 100 µM | > 100 µM | > 100 µM | > 100 µM | C/C=C/C[C@H](C)C[C@H](C)C(=O)C1=C(O)[C@H](Cc2ccc(O)cc2)NC1=O
11 | > 100 µM | > 100 µM | > 100 µM | – | C/C=C/C[C@H](C)C[C@@]1(C)Oc2c(-c3ccc(O)cc3)c[nH]c(=O)c2[C@@H]1O
